Assays:
HeLa Cells [1] = assay: Transfection of HeLa cells with DOTMA/DOPE/peptide and eGFP plasmid, fluorescent plate reader; assay type: cell-based; conditions: DOTMA/DOPE 1:1 plus peptide with RRRRRRRRRRRR (SEQ ID NO: 109) at n terminus; EF1Alpha eGFP plasmid; 0.01 mL complex; 42 hours
Protocol: (§1) Cells were plated to so that on the day of transfection the cells were 60-70% confluent in 96 well tissue culture plates. A DOMTA/DOPE Lipid solution (1:1 molar ratio) at 2 mg/mL in water were mixed with an equal volume of surface ligand peptides that had the nucleic acid binding moiety RRRRRRRRRRRR (SEQ ID NO: 109) covalently linked to the n terminus of each peptide during peptide synthesis. Peptides were at 2 mg/mL in water. The DOTMA/DOPE and the surface ligand peptide solution the transfection reagent was diluted 1 to 1 (v/v) in water. DOMTA/DOPE/PEPTIDE solutions were added to 0.1 mL of a plasmid DNA solution (EF1Alpha eGFP plasmid) at 5 μg/mL in OptiMEM. Lipofectamine 2000 was obtained from Life Technologies.
(§2) All solutions were at room temperature. A volume of 0.2 mL of a 5 μg/mL solution of DNA was aliquoted into each well of a non-tissue cultured treated plate. 4.0 μL of transfection reagents were added to DNA solutions respectively. The transfection reagent and DNA solution was mixed by pipetting up and down twice. Transfection complexes were formed for 10 minutes. After 10 minutes, 0.01 or 0.02 mL of the transfection complex was added to cells. HuVEC, HeLa, human adult keratinocytes, human primary adult fibroblast, and rat cortical neurons all respectively received 0.01 mL of the tramsfectopm complex. Human skeletal muscle cells, mouse C2C12 cells, Jurkat, and THP-1 cells received 0.02 mL of the transfection complex. Cells were incubated for 42 hours at 37° C. at 5% CO2. Plates were read on a fluorescent plate reader. Cells were also examined visually under a microscope to assess the extent of transfection (in terms of the percent of cells transfected) with a fluorescent microscope. Other modes of analysis, for example quantification with B-galactosidase or luciferase reports plasmids can also be used. […] Surface ligand that caused increase expression of GFP over the lipid DOTMA with no surface ligand were considered to enhance transfection or had higher % cells transfected were considered to enhance transfection. Peptides that gave greater than 2 fold enhancement are noted in bold and could be further optimized by adding different transfection enhancers or could be used with different cationic lipids or polymers.

HuVec Cells = assay: Transfection of HuVec cells with DOTMA/DOPE/peptide and eGFP plasmid, fluorescent plate reader; assay type: cell-based; conditions: DOTMA/DOPE 1:1 plus peptide with RRRRRRRRRRRR (SEQ ID NO: 109) at n terminus; EF1Alpha eGFP plasmid; 0.01 mL complex; 42 hours
Protocol: as §1, §2

NL-1 iPS Cells = assay: Transfection of NL-1 iPS cells with DOTMA/DOPE/peptide and eGFP plasmid, fluorescent plate reader; assay type: cell-based; conditions: DOTMA/DOPE 1:1 plus peptide with RRRRRRRRRRRR (SEQ ID NO: 109) at n terminus; EF1Alpha eGFP plasmid; 42 hours
Protocol: as §1, §2

C2C12 Cells = assay: Transfection of C2C12 cells with DOTMA/DOPE/peptide and eGFP plasmid, fluorescent plate reader; assay type: cell-based, mouse; conditions: DOTMA/DOPE 1:1 plus peptide with RRRRRRRRRRRR (SEQ ID NO: 109) at n terminus; EF1Alpha eGFP plasmid; 0.02 mL complex; 42 hours
Protocol: as §1, §2

Human Fibroblast Cells = assay: Transfection of human fibroblast cells with DOTMA/DOPE/peptide and eGFP plasmid, fluorescent plate reader; assay type: cell-based; conditions: DOTMA/DOPE 1:1 plus peptide with RRRRRRRRRRRR (SEQ ID NO: 109) at n terminus; EF1Alpha eGFP plasmid; 0.01 mL complex; 42 hours
Protocol: as §1, §2

Jurkat Cells = assay: Transfection of Jurkat cells with DOTMA/DOPE/peptide and eGFP plasmid, fluorescent plate reader; assay type: cell-based; conditions: DOTMA/DOPE 1:1 plus peptide with RRRRRRRRRRRR (SEQ ID NO: 109) at n terminus; EF1Alpha eGFP plasmid; 0.02 mL complex; 42 hours
Protocol: as §1, §2

some examined cell types = assay: Transfection expression and % cells transfected over the no peptide control; assay type: cell-based; conditions: on some examined cell types
Protocol: as §1, §2

HeLa Cells [2] = assay: Transfection of HeLa cells with DOTMA/SEQ ID NO: 72/peptide compared with Lipofectamine 2000; assay type: cell-based; conditions: fusogenic peptide 0.1 mg/mL
Protocol: as §1, §2
The fusogenic peptide was added to the DOMTA/peptide formulation to achieve a final concentration of 0.1 mg/mL to see if transfection reagents were further enhanced by the addition of a fusogenic peptide and could provide higher transfection efficiency into HeLa cells and expression than the commercially available Lipofectamine 2000.

## 230 (WQPPRARI; Peptidic transfection agent) [compound 230]
HeLa Cells [1]
  RF (Relative Fluorescence) of Transfection of HeLa Cells: 8944
HuVec Cells
  RF (Relative Fluorescence) of Transfection of HuVec Cells: 9067
NL-1 iPS Cells
  RF (Relative Fluorescence) of Transfection of NL-1 iPS Cells: 14524
C2C12 Cells
  RF (Relative Fluorescence) of Transfection of C2C12 Cells: 2606
Human Fibroblast Cells
  RF (Relative Fluorescence) of Transfection of Human Fibroblast Cells: 11771
Jurkat Cells
  RF (Relative Fluorescence) of Transfection of Jurkat Cells: 10229
Some examined cell types
  transfection expression and the % cells transfected over the no peptide control: increased

## 363 (LAGSCLARFSTM; Peptidic transfection agent) [compound 363]
HeLa Cells [1]
  RF (Relative Fluorescence) of Transfection of HeLa Cells: 2590
HuVec Cells
  RF (Relative Fluorescence) of Transfection of HuVec Cells: 1383
NL-1 iPS Cells
  RF (Relative Fluorescence) of Transfection of NL-1 iPS Cells: 4189
C2C12 Cells
  RF (Relative Fluorescence) of Transfection of C2C12 Cells: 1080
Human Fibroblast Cells
  RF (Relative Fluorescence) of Transfection of Human Fibroblast Cells: 3008
Jurkat Cells
  RF (Relative Fluorescence) of Transfection of Jurkat Cells: 2432

## 107 (RRRRRRRR; Peptidic transfection agent) [compound 107]
HeLa Cells [1]
  RF (Relative Fluorescence) of Transfection of HeLa Cells: 75
NL-1 iPS Cells
  RF (Relative Fluorescence) of Transfection of NL-1 iPS Cells: 1441

## 383 (TAG; Peptidic transfection agent) [compound 383]
HeLa Cells [1]
  RF (Relative Fluorescence) of Transfection of HeLa Cells: 8012
HuVec Cells
  RF (Relative Fluorescence) of Transfection of HuVec Cells: 20267
NL-1 iPS Cells
  RF (Relative Fluorescence) of Transfection of NL-1 iPS Cells: 21983
C2C12 Cells
  RF (Relative Fluorescence) of Transfection of C2C12 Cells: 1876
Human Fibroblast Cells
  RF (Relative Fluorescence) of Transfection of Human Fibroblast Cells: 5896
Jurkat Cells
  RF (Relative Fluorescence) of Transfection of Jurkat Cells: 14910

## 349 (RNIAEIIKDI; Peptidic transfection agent) [compound 349]
HeLa Cells [1]
  RF (Relative Fluorescence) of Transfection of HeLa Cells: 4433
HuVec Cells
  RF (Relative Fluorescence) of Transfection of HuVec Cells: 22907
NL-1 iPS Cells
  RF (Relative Fluorescence) of Transfection of NL-1 iPS Cells: 33103
Human Fibroblast Cells
  RF (Relative Fluorescence) of Transfection of Human Fibroblast Cells: 8810
Jurkat Cells
  RF (Relative Fluorescence) of Transfection of Jurkat Cells: 23167
Some examined cell types
  transfection expression and the % cells transfected over the no peptide control: increased

## 235 (KARSFNVNQLLQD; Peptidic transfection agent) [compound 235]
HuVec Cells
  RF (Relative Fluorescence) of Transfection of HuVec Cells: 26940

## 234 (YEKPGSPPREVVPRPRPGV; Peptidic transfection agent) [compound 234]
HeLa Cells [1]
  RF (Relative Fluorescence) of Transfection of HeLa Cells: 3867
HuVec Cells
  RF (Relative Fluorescence) of Transfection of HuVec Cells: 13956
NL-1 iPS Cells
  RF (Relative Fluorescence) of Transfection of NL-1 iPS Cells: 14410
C2C12 Cells
  RF (Relative Fluorescence) of Transfection of C2C12 Cells: 681
Human Fibroblast Cells
  RF (Relative Fluorescence) of Transfection of Human Fibroblast Cells: 4145
Jurkat Cells
  RF (Relative Fluorescence) of Transfection of Jurkat Cells: 5441

## 335 (TVFSVDQDNMLE; Peptidic transfection agent) [compound 335]
HeLa Cells [1]
  RF (Relative Fluorescence) of Transfection of HeLa Cells: 26954
HuVec Cells
  RF (Relative Fluorescence) of Transfection of HuVec Cells: 6350
NL-1 iPS Cells
  RF (Relative Fluorescence) of Transfection of NL-1 iPS Cells: 14424
C2C12 Cells
  RF (Relative Fluorescence) of Transfection of C2C12 Cells: 4689
Human Fibroblast Cells
  RF (Relative Fluorescence) of Transfection of Human Fibroblast Cells: 8534
Jurkat Cells
  RF (Relative Fluorescence) of Transfection of Jurkat Cells: 4567
HeLa Cells [2]; 0.1 μL of DOTMA/SEQ ID NO: 72/Peptide in well of a 96 well plate
  RF (Relative Fluorescence), DOTMA/SEQ ID NO: 72/Peptide, HeLa Cells: 12866
HeLa Cells [2]; 0.2 μL of DOTMA/SEQ ID NO: 72/Peptide in well of a 96 well plate
  RF (Relative Fluorescence), DOTMA/SEQ ID NO: 72/Peptide, HeLa Cells: 12458
HeLa Cells [2]; 0.3 μL of DOTMA/SEQ ID NO: 72/Peptide in well of a 96 well plate
  RF (Relative Fluorescence), DOTMA/SEQ ID NO: 72/Peptide, HeLa Cells: 11547
HeLa Cells [2]; 0.4 μL of DOTMA/SEQ ID NO: 72/Peptide in well of a 96 well plate
  RF (Relative Fluorescence), DOTMA/SEQ ID NO: 72/Peptide, HeLa Cells: 9753
